Data reported in US20100167397A1, “ENDOCRINE CELL LINES AND METHOD OF USING THE SAME” (KYOWA HAKKO KOGYO CO., LTD., priority 2002, published 2010).

Test system: CRE reporter in GBCRC6
Experiment: Constitutive activity of GPCR, Method 1 (GBCRC6 host, Renilla reniformis luciferase, induction ratio with 17β-estradiol)
Assay type: cell-based, human
Details: for Constitutive Activity (induction ratio): Method 1, GBCRC6 host, activity with 17β-estradiol divided by activity without, control plasmid about 1; for Constitutive Activity: method 1 of (2) of Example 22, induction ratio of reporter activity with 17β-estradiol; for induction ratio (constitutive activity): method of (2) of Example 22 utilizing GBCRC6 as a host
Procedure: After the incubation, coelenterazine h (Molecular Proves) (final concentration 250 nmol/L) was added to measure the activity of Renilla reniformis luciferase. For the activity measurement, a Wallac 1420 ARVOsx Multilabel Counter (manufactured by Wallac Berthold Japan) or a VIM camera (Argus-50/2D Luminometer/MP; manufactured by Hamamatsu Photonics) was used.
In each method, the induction ratio of the cells transfected with the control plasmid was about 1. It is judged that the higher the induction ratio of the cells to which a GPCR expression plasmid was transfected, the stronger the constitutive activity of the GPCR.

Row | Constitutive Activity (induction ratio) | Molecule | further results
1 | 20-fold | GPCR 25 | –
2 | 12-fold | GPR 62 | –
3 | 3.6-fold | OGR1 | –
4 | 25-fold | GPR 35 | –
5 | 63-fold | GPR 6 | –
6 | – | OGR1S221N/D118A: OGR1S221N mutant GPCR with 118th aspartic acid substituted with alanine; SEQ ID NO: 189 | Constitutive Activity: 56-fold
7 | 40-fold | GPR 4 | –
8 | 11-fold | GPR 92 | –
9 | 27-fold | GPR 30 | –
10 | 12.7-fold | OGR1S221N | –
11 | 12-fold | GPR 61 | –
12 | 15-fold | GPR 88 | –
13 | – | GPR43R217P: mutant where the 217th arginine of GPR43 polypeptide was substituted with proline; SEQ ID NO: 197 (protein, GPR43R217P) MLPDWKSSLILMAYIIIFLTGLPANLLALRAFVGRIRQPQPAPVHILLLSLTLADLLLLLLLPFKIIEAASNFRWYLPKVVCALTSFGFYSSIYCSTWLLAGISIERYLGVAFPVQYKLSRRPLYGVIAALVAWVMSFGHCTIVIIVQYLNTTEQVRSGNEITCYENFTDNQLDVVLPVRLELCLVLFFIPMAVTIFCYWRFVWIMLSQPLVGAQRPRRAVGLAVVTLLNFLVCFGPYNVSHLVGYHQRKSPWWRSIAVVFSSLNASLDPLLFYFSSSVVRRAFGRGLQVLRNQGSSLLGRRGKDTAEGTNEDRGVGQGEGMPSSDFTTE | induction ratio (constitutive activity): about 2 fold
14 | – | GPR43R217PE106D: GPR43R217P mutant where the 106th glutamic acid was substituted with aspartic acid; SEQ ID NO: 198 (protein, GPR43R217P/E106D) MLPDWKSSLILMAYIIIFLTGLPANLLALRAFVGRIRQPQPAPVHILLLSLTLADLLLLLLLPFKIIEAASNFRWYLPKVVCALTSFGFYSSIYCSTWLLAGISIDRYLGVAFPVQYKLSRRPLYGVIAALVAWVMSFGHCTIVIIVQYLNTTEQVRSGNEITCYENFTDNQLDVVLPVRLELCLVLFFIPMAVTIFCYWRFVWIMLSQPLVGAQRPRRAVGLAVVTLLNFLVCFGPYNVSHLVGYHQRKSPWWRSIAVVFSSLNASLDPLLFYFSSSVVRRAFGRGLQVLRNQGSSLLGRRGKDTAEGTNEDRGVGQGEGMPSSDFTTE | induction ratio (constitutive activity): about 17 fold
15 | – | GPCR25D111A: GPCR25 mutant GPCR, 111th aspartic acid substituted with alanine; SEQ ID NO: 192 (protein, GPCR25D111A) MNSTCIEEQHDLDHYLFPIVYIFVIIVSIPANIGSLCVSFLQPKKESELGIYLFSLSLSDLLYALTLPLWIDYTWNKDNWTFSPALCKGSAFLMYMKFYSSTAFLTCIAVARYLAVVYPLKFFFLRTRRIALMVSLSIWILETIFNAVMLWEDETVVEYCDAEKSNFTLCYDKYPLEKWQINLNLFRTCTGYAIPLVTILICNRKVYQAVRHNKATENKEKKRIIKLLVSITVTFVLCFTPFHVMLLIRCILEHAVNFEDHSNSGKRTYTMYRITVALTSLNCVADPILYCFVTETGRYDMWNILKFCTGRCNTSQRQRKRILSVSTKDTMELEVLE | Constitutive Activity: 35-fold
16 | – | RE2D124A: RE2 mutant GPCR, 124th aspartic acid substituted with alanine; SEQ ID NO: 190 (protein, RE2D124A) MSLNSSLSCRKELSNLTEEEGGEGGVIITQFIAIIVITIFVCLGNLVIVVTLYKKSYLLTLSNKFVFSLTLSNFLLSVLVLPFVVTSSIRREWIFGVVWCNFSALLYLLISSASMLTLGVIAIARYYAVLYPMVYPMKITGNRAVMALVYIWLHSLIGCLPPLFGWSSVEFDEFKWMCVAAWHREPGYTAFWQIWCALFPFLVMLVCYGFIFRVARVKARKVHCGTVVIVEEDAQRTGRKNSSTSTSSSGSRRNAFQGVVYSANQCKALITILVVLGAFMVTWGPYMVVIASEALWGKSSVSPSLETWATWLSFASAVCHPLIYGLWNKTVRKELLGMCFGDRYYREPFVQRQRTSRLFSISNRITDLGLSPHLTALMAGGQPLGHSSSTGDTGFSCSQDSGNLRAL | Constitutive Activity: 32-fold
17 | – | GPR35D113A: GPR35 mutant GPCR, 113th aspartic acid substituted with alanine; SEQ ID NO: 191 (protein, GPR35D113A) MNGTYNTCGSSDLTWPPAIKLGFYAYLGVLLVLGLLLNSLALWVFCCRMQQWTETRIYMTNLAVADLCLLCTLPFVLHSLRDTSDTPLCQLSQGIYLTNRYMSISLVTAIAVARYVAVRHPLRARGLRSPRQAAAVCAVLWVLVIGSLVARWLLGIQEGGFCFRSTRHNFNSMRFPLLGFYLPLAVVVFCSLKVVTALAQRPPTDVGQAEATRKAARMVWANLLVFVVCFLPLHVGLTVRLAVGWNACALLETIRRALYITSKLSDANCCLDAICYYYMAKEFQEASALAVAPRAKAHKSQDSLCVTLA | Constitutive Activity: 97-fold
18 | – | PGMO334E135F: mutant where the 135th glutamic acid of the PGMO334 polypeptide was substituted with phenylalanine; SEQ ID NO: 193 (protein, PGMO334E135F) MSPECARAAGDAPLRSLEQANRTRFPFFSDVKGDHRLVLAAVETTVLVLIFAVSLLGNVCALVLVARRRRRGATACLVLNLFCADLLFISAIPLVLAVRWTEAWLLGPVACHLLFYVMTLSGSVTILTLAAVSLFRMVCIVHLQRGVRGPGRRARAVLLALIWGYSAVAALPLCVFFRVVPQRLPGADQEISICTLIWPTIPGEISWDVSFVTLNFLVPGLVIVISYSKILQITKASRKRLTVSLAYSESHQIRVSQQDFRLFRTLFLLMVSFFIMWSPIIITILLILIQNFKQDLVIWPSLFFWVVAFTFANSALNPILYNMTLCRNEWKKIFCCFWFPEKGAILTDTSVKRNDLSIISG | induction ratio (constitutive activity): about 3 fold
19 | – | PGMO334D259S: mutant where the 259th aspartic acid of PGMO334 polypeptide was substituted with serine; SEQ ID NO: 196 (protein, PGMO334D259S) MSPECARAAGDAPLRSLEQANRTRFPFFSDVKGDHRLVLAAVETTVLVLIFAVSLLGNVCALVLVARRRRRGATACLVLNLFCADLLFISAIPLVLAVRWTEAWLLGPVACHLLFYVMTLSGSVTILTLAAVSLERMVCIVHLQRGVRGPGRRARAVLLALIWGYSAVAALPLCVFFRVVPQRLPGADQEISICTLIWPTIPGEISWDVSFVTLNFLVPGLVIVISYSKILQITKASRKRLTVSLAYSESHQIRVSQQSFRLFRTLFLLMVSFFIMWSPIIITILLILIQNFKQDLVIWPSLFFWVVAFTFANSALNPILYNMTLCRNEWKKIFCCFWFPEKGAILTDTSVKRNDLSIISG | induction ratio (constitutive activity): about 5 fold
20 | – | PGMO334E135Q: mutant where the 135th glutamic acid of PGMO334 polypeptide was substituted with glutamine; SEQ ID NO: 194 (protein, PGMO334E135Q) MSPECARAAGDAPLRSLEQANRTRFPFFSDVKGDHRLVLAAVETTVLVLIFAVSLLGNVCALVLVARRRRRGATACLVLNLFCADLLFISAIPLVLAVRWTEAWLLGPVACHLLFYVMTLSGSVTILTLAAVSLQRMVCIVHLQRGVRGPGRRARAVLLALIWGYSAVAALPLCVFFRVVPQRLPGADQEISICTLIWPTIPGEISWDVSFVTLNFLVPGLVIVISYSKILQITKASRKRLTVSLAYSESHQIRVSQQDFRLFRTLFLLMVSFFIMWSPIIITILLILIQNFKQDLVIWPSLFFWVVAFTFANSALNPILYNMTLCRNEWKKIFCCFWFPEKGAILTDTSVKRNDLSIISG | induction ratio (constitutive activity): about 3 fold
21 | – | PGMO334E135A: mutant where the 135th glutamic acid of PGMO334 polypeptide was substituted with alanine; SEQ ID NO: 195 (protein, PGMO334E135A) MSPECARAAGDAPLRSLEQANRTRFPFFSDVKGDHRLVLAAVETTVLVLIFAVSLLGNVCALVLVARRRRRGATACLVLNLFCADLLFISAIPLVLAVRWTEAWLLGPVACHLLFYVMTLSGSVTILTLAAVSLARMVCIVHLQRGVRGPGRRARAVLLALIWGYSAVAALPLCVFFRVVPQRLPGADQEISICTLIWPTIPGEISWDVSFVTLNFLVPGLVIVISYSKILQITKASRKRLTVSLAYSESHQIRVSQQDFRLFRTLFLLMVSFFIMWSPIIITILLILIQNFKQDLVIWPSLFFWVVAFTFANSALNPILYNMTLCRNEWKKIFCCFWFPEKGAILTDTSVKRNDLSIISG | induction ratio (constitutive activity): about 14 fold
22 | 20-fold | G2A (protein, UniProt Q9UNW8 1-380, looked up) Probable G-protein coupled …: MCPMLLKNGYNGNATPVTTTAPWASLGLSAKTCNNVSFEESRIVLVVVYSAVCTLGVPANCLTAWLALLQVLQGNVLAVYLLCLALCELLYTGTLPLWVIYIRNQHRWTLGLLACKVTAYIFFCNIYVSILFLCCISCDRFVAVVYALESRGRRRRRTAILISACIFILVGIVHYPVFQTEDKETCFDMLQMDSRIAGYYYARFTVGFAIPLSIIAFTNHRIFRSIKQSMGLSAAQKAKVKHSAIAVVVIFLVCFAPYHLVLLVKAAAFSYYRGDRNAMCGLEERLYTASVVFLCLSTVNGVADPIIYVLATDHSRQEVSRIHKGWKEWSMKTDVTRLTHSRDTEELQSPVALADHYTFSRPVHPPGSPCPAKRLIEESC | –
